Data as given in patent publication US12084420B2, “Indoline compounds for inhibiting KIF18A” (Volastra Therapeutics, Inc., priority 2021, dated 2024).

Each compound was assayed against hKIF18A (1-374) (Homo sapiens (Human), UniProt Q8NI77) (assay: Inhibition of KIF18A microtubule-dependent ATPase activity (ADP-Glo)). Settings: KIF18A microtubule-dependent ATPase activity, biochemical assay.
Chain of hKIF18A (1-374) (Q8NI77 whole entry, looked up): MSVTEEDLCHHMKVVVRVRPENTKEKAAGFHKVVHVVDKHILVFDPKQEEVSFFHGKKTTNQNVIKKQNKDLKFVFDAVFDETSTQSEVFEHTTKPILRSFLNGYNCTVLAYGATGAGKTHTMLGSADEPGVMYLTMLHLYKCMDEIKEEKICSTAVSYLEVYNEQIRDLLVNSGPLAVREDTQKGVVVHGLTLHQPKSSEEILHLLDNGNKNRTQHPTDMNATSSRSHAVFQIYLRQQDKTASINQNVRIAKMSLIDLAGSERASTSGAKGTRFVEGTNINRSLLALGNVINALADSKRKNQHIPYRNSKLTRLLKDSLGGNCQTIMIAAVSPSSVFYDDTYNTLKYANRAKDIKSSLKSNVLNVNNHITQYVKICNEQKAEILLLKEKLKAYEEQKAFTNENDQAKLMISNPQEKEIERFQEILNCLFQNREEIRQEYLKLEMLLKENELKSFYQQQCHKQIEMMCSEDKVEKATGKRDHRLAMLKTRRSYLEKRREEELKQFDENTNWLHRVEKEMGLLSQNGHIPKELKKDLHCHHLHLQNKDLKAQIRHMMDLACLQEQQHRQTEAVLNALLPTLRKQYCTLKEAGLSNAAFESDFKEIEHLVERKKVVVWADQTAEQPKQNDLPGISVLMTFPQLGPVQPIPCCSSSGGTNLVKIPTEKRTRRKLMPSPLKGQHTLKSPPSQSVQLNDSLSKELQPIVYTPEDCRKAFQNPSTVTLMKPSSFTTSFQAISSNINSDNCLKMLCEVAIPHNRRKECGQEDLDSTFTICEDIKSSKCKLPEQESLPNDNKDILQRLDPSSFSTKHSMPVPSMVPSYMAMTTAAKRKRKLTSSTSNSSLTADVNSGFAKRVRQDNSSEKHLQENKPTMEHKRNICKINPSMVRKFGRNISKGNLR
Chain of hKIF18A (1-374) (Q2XVP4 whole entry partner, looked up): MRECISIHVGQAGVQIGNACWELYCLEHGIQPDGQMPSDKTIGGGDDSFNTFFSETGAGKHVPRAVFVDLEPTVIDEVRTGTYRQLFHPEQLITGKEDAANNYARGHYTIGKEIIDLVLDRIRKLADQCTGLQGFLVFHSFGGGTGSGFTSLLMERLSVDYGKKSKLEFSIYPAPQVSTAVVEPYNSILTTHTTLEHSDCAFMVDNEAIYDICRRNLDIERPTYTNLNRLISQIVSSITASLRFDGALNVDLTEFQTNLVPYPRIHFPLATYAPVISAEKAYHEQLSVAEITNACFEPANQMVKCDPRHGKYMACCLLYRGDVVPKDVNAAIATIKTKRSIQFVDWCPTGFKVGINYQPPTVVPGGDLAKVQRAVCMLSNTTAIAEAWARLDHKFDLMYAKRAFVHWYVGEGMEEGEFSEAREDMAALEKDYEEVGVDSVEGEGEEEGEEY
Chain of hKIF18A (1-374) (P02554 whole entry partner, looked up): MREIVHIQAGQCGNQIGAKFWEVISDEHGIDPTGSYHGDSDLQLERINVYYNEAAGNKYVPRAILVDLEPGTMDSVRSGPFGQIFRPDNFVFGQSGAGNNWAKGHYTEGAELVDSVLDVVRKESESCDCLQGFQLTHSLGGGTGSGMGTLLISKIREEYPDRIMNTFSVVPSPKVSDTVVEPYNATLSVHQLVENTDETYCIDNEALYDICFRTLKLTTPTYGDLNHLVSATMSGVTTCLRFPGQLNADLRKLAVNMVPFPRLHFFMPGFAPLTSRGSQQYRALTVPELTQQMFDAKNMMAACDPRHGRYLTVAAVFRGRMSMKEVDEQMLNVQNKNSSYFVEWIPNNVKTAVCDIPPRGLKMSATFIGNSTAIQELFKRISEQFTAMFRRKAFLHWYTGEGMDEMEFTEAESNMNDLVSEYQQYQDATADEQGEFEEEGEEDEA
Method: Biological Assays Inhibition of KIF18A Microtubule-Dependent ATPase Activity:
Test compounds were plated in a 3× dilution scheme in a 384-well plate. Assay buffer: 80 mM PIPES (pH 6.9), 1 mM MgCl2, 75 mM KCl, 1 mM EGTA, 1 mM DTT, 0.01% BSA, 0.005% Tween-20, 1 μM Taxol in H2O. […] After incubation at room temperature for 30 min, 2.5 μL of microtubule mix was added [0.2 mg/mL pre-formed microtubules, 2.0 mM ATP in assay buffer], the plate was centrifuged for 30 s and then incubated at 28° C. for 60 min. 5 μL of Promega® ADP-Glo Max R1 was added, the plate was centrifuged for 30 s, and the mixture incubated for 4 h at room temperature. 10 μL of Promega® ADP-Glo Max R2 was added, the plate centrifuged for 30 s, and incubated for 60 min at room temperature. Luminescence was measured with an Envision plate reader, and % Inhibition was calculated for each well as: ([max−min]−[test−min])/[max−min]. IC50 values were calculated from concentration vs. % Inhibition data via a four-parameter variable slope model.

Compared with CS(=O)(=O)Nc1ccc2c(c1)C1(CCC3(CC3)CC1)CN2C(=O)c1cccc(C(O)C2CCCC2)c1 (centres unmarked) [Compound 165, N-(1″-(3-(cyclopentyl(hydroxy)methyl)benzoyl)dispiro[cyclopropane-1,1′-cyclohexane-4′,3″indolin]-5″- yl)methanesulfonamide], CS(=O)(=O)Nc1ccc2c(c1)C1(CCC3(CC3)CC1)CN2C(=O)c1cccc([S+]([O-])C2CCCC2)c1 (centres unmarked) [Compound 270, N-(1″-(3-(cyclopentylsulfinyl)benzoyl)dispiro [cyclopropane-1,1′-cyclohexane-4′,3″- indolin]-5″-yl)methanesulfonamide] is 7.3-fold higher in IC50: 15 nM for the first, 110 nM for the second. The first is the more potent here.

Going from CCS(=O)(=O)Nc1ccc2c(c1)C1(CCC3(CC3)CC1)CN2C(=O)c1csc(S(=O)(=O)NC(C)(C)C)c1 [Compound 275, N-(tert-butyl)-4-(5″- (ethylsulfonamido)dispiro[cyclopropane-1,1′-cyclohexane-4′,3″-indoline]-1″- carbonyl)thiophene-2-sulfonamide] to CCS(=O)(=O)Nc1ccc2c(c1)C1(CCC3(CC3)CC1)CN2C(=O)c1ccc(F)c(S(=O)(=O)NC(C)(C)C)c1 [Compound 340, N-(tert-butyl)-5-(5″- (ethylsulfonamido)dispiro[cyclopropane-1,1′-cyclohexane-4′,3″-indoline]-1″- carbonyl)-2-fluorobenzenesulfonamide], the IC50 rises from 8 nM to 18 nM (2.2-fold).

Going from CCC(CO)NS(=O)(=O)c1cccc(C(=O)N2CC3(CCC4(CC4)CC3)c3cc(NS(C)(=O)=O)ccc32)c1 (centres unmarked) [Compound 208, N-(1-hydroxybutan-2-yl)-3-(5″- (methylsulfonamido)dispiro[cyclopropane-1,1′-cyclohexane-4′,3″-indoline]-1″-carbonyl)benzenesulfonamide] to CCC(C)NS(=O)(=O)c1cccc(C(=O)N2CC3(CCC4(CC4)CC3)c3cc(NS(C)(=O)=O)ccc32)c1 (centres unmarked) [Compound 170, N-(sec-butyl)-3-(5″- (methylsulfonamido)dispiro[cyclopropane-1,1′-cyclohexane-4′,3″-indoline]-1″-carbonyl)benzenesulfonamide], the IC50 falls from 64 nM to 15 nM (4.3-fold). The second is the more potent here.

First: CS(=O)(=O)Nc1ccc2c(c1)C1(CCC3(CC3)CC1)CN2C(=O)c1cccc(S(=O)(=O)NC2(CO)CC2)c1 [Compound 202, N-(1-(hydroxymethyl)cyclopropyl)-3-(5″- (methylsulfonamido)dispiro[cyclopropane-1,1′-cyclohexane-4′,3″-indoline]-1″-carbonyl)benzenesulfonamide]
Second: CC1(NS(=O)(=O)c2cccc(C(=O)N3CC4(CCC5(CC5)CC4)c4cc(NS(C)(=O)=O)ccc43)c2)COC1 [Compound 206, N-(3-methyloxetan-3-yl)-3-(5″- (methylsulfonamido)dispiro[cyclopropane-1,1′-cyclohexane-4′,3″-indoline]-1″-carbonyl)benzenesulfonamide]
The IC50 of the first is 2-fold higher: 53 nM for the first, 27 nM for the second. The second is the more potent here.

First: COc1ccc(C(=O)N2CC3(CCC4(CC4)CC3)c3cc(NS(C)(=O)=O)ccc32)cc1S(=O)(=O)N1CC(F)(F)C1 [Compound 302, N-(1″-(3-((3,3-difluoroazetidin-1-yl)sulfonyl)-4-methoxybenzoyl)dispiro[cyclopropane-1,1′-cyclohexane-4′,3″-indolin]-5″- yl)methanesulfonamide]
Second: CS(=O)(=O)Nc1ccc2c(c1)C1(CCC3(CC3)CC1)CN2C(=O)c1cccc(CN2CC(F)(F)C2)c1 [Compound 345, N-(1″-(3-((3,3-difluoroazetidin-1-yl)methyl)benzoyl)dispiro[cyclopropane-1,1′-cyclohexane-4′,3″-indolin]-5″-yl)methanesulfonamide]
The IC50 of the first is 3.1-fold lower: 19 nM for the first, 58 nM for the second.

Going from CC(C)(C)NS(=O)(=O)c1cccc(C(=O)N2CC3(CCC4(CC4)CC3)c3cc(Br)ccc32)c1 [Compound 9, 3-(5″-bromodispiro[cyclopropane-1,1′-cyclohexane-4′,3″-indoline]-1″- carbonyl)-N-(tert-butyl)benzenesulfonamide] to CC(C)(C)NS(=O)(=O)c1cccc(C(=O)N2CC3(CCC4(CC4)CC3)c3cc(C(O)C(F)(F)F)ccc32)c1 (single isomer, unassigned) [Compound 338a], the IC50 falls from 1000 nM to 48 nM (21-fold).

CS(=O)(=O)Nc1ccc2c(c1)C1(CCC3(CC3)CC1)CN2C(=O)c1ccc(S(=O)(=O)N2CC3(CCC3)C2)o1 [Compound 321, N-(1″-(5-((2-azaspiro[3.3]heptan-2-yl)sulfonyl)furan-2-carbonyl)dispiro[cyclopropane-1,1′-cyclohexane-4′,3″-indolin]-5″- yl)methanesulfonamide] and CS(=O)(=O)Nc1ccc2c(c1)C1(CCC3(CC3)CC1)CN2C(=O)c1ccc(C(O)C2CC(F)(F)C2)o1 (centres unmarked) [Compound 369, N-(1″-(5-((3,3-difluorocyclobutyl)(hydroxy)methyl)furan-2-carbonyl)dispiro[cyclopropane-1,1′-cyclohexane-4′,3″-indolin]-5″- yl)methanesulfonamide] are within 1.5-fold of each other in IC50: 6.3 nM for the first, 7.1 nM for the second.

Compared with CC(C)N(C)S(=O)(=O)c1cccc(C(=O)N2CC3(CCCCC3)c3cc(NS(C)(=O)=O)ccc32)c1 [Compound 55, N-isopropyl-N-methyl-3-(5′-(methylsulfonamido)spiro[cyclohexane-1,3′-indoline]-1′-carbonyl)benzenesulfonamide], CN(C)S(=O)(=O)c1cccc(C(=O)N2CC3(CCCCC3)c3cc(NS(C)(=O)=O)ccc32)c1 [Compound 42, N,N-dimethyl-3-(5′-(methylsulfonamido)spiro[cyclohexane-1,3′-indoline]-1′-carbonyl)benzenesulfonamide] is 9.3-fold higher in IC50: 140 nM for the first, 1300 nM for the second.

First: CN(C1CC(F)(F)C1)S(=O)(=O)c1cccc(C(=O)N2CC3(CCC4(CC4)CC3)c3cc(NS(C)(=O)=O)ccc32)c1 [Compound 356, N-(3,3-difluorocyclobutyl)-N-methyl-3-(5″- (methylsulfonamido)dispiro[cyclopropane-1,1′-cyclohexane-4′,3″-indoline]-1″-carbonyl)benzenesulfonamide]
Second: CC1(C)CCN1S(=O)(=O)c1cccc(C(=O)N2CC3(CCC4(CC4)CC3)c3cc(NS(C)(=O)=O)ccc32)c1 [Compound 245, N-(1″-(3-((2,2-dimethylazetidin-1-yl)sulfonyl)benzoyl)dispiro[cyclopropane-1,1′-cyclohexane-4′,3″-indolin]-5″- yl)methanesulfonamide]
The IC50 of the first is 1.5-fold higher: 51 nM for the first, 34 nM for the second.

First: CC(C)(C)[C@H](O)c1ccc(C(=O)N2CC3(CCC4(CC4)CC3)c3cc(NS(=O)(=O)CCO)ccc32)o1 (single isomer, unassigned) [Compound 371b]
Second: O=C(c1ccc(C(O)C2CCCC2)o1)N1CC2(CCC3(CC3)CC2)c2cc(NS(=O)(=O)CCO)ccc21 (single isomer, unassigned) [Compound 368b]
The IC50 of the first is 11-fold higher: 40 nM for the first, 3.5 nM for the second.

Going from CS(=O)(=O)Nc1ccc2c(c1)[C@]1(CC[C@H](C(F)F)CC1)CN2C(=O)c1cccc(S(=O)(=O)NC23CC(C2)C3)c1 [Compound 336b] to CS(=O)(=O)Nc1ccc2c(c1)C1(CCC3(CC3)CC1)CN2C(=O)c1ccc(F)c(S(=O)(=O)NC23CC(C2)C3)c1 [Compound 337, N-(bicyclo[1.1.1]pentan-1-yl)-2-fluoro-5-(5″-(methylsulfonamido)dispiro[cyclopropane-1,1′-cyclohexane-4′,3″-indoline]-1″- carbonyl)benzenesulfonamide], the IC50 falls from 17 nM to 8.8 nM (1.9-fold). The second is the more potent here.

CS(=O)(=O)Nc1ccc2c(c1)C1(CCC3(CC3)CC1)CN2C(=O)c1cccc(S(=N)(=O)C2CCCC2)c1 (single isomer, unassigned) [Compound 287a] and CP(=O)(CC1CCC1)c1cccc(C(=O)N2CC3(CCC4(CC4)CC3)c3cc(NS(C)(=O)=O)ccc32)c1 (centres unmarked) [Compound 362] are within 1.5-fold of each other in IC50: 34 nM for the first, 35 nM for the second.

CC(C)(C)NS(=O)(=O)c1ccc(C(=O)N2CC3(CCCCC3)c3cc(NS(C)(=O)=O)ccc32)o1 [Compound 149, N-(tert-butyl)-5-(5′-(methylsulfonamido)spiro[cyclohexane-1,3′-indoline]-1′-carbonyl)furan-2-sulfonamide] and CC(C)NS(=O)(=O)c1cccc(C(=O)N2CC3(CCCCC3)c3cc(NS(C)(=O)=O)ccc32)c1 [Compound 48, N-isopropyl-3-(5′-(methylsulfonamido)spiro[cyclohexane-1,3′-indoline]-1′-carbonyl)benzenesulfonamide] are within 1.5-fold of each other in IC50: 78 nM for the first, 100 nM for the second.

Going from CC1CN(S(=O)(=O)c2cccc(C(=O)N3CC4(CCCCC4)c4cc(NS(C)(=O)=O)ccc43)c2)CCO1 (centres unmarked) [Compound 107, N-(1′-(3-((2-methylmorpholino)sulfonyl)benzoyl)spiro[cyclohexane-1,3′-indolin]-5′-yl)methanesulfonamide] to CS(=O)(=O)Nc1ccc2c(c1)C1(CCCCC1)CN2C(=O)c1cccc(S(=O)(=O)N2CCCCC2)c1 [Compound 240, N-(1′-(3-(piperidin-1-ylsulfonyl)benzoyl)spiro[cyclohexane-1,3′-indolin]-5′-yl)methanesulfonamide], the IC50 falls from 470 nM to 40 nM (12-fold).

Going from CCC1=CCC2(CC1)CN(C(=O)c1cccc(S(=O)(=O)NC(C)(C)C)c1)c1ccc(NS(C)(=O)=O)cc12 (centres unmarked) [Compound 31, N-(tert-butyl)-3-(4-ethyl-5′-(methylsulfonamido)spiro[cyclohexane-1,3′-indolin]-3-en-1′-carbonyl)benzenesulfonamide] to O=C(c1cccc(S(=O)(=O)NC2CCC2)c1)N1CC2(CCC3(CC3)CC2)c2cc(NS(=O)(=O)CCO)ccc21 [Compound 227, N-cyclobutyl-3-(5″-((2-hydroxyethyl)sulfonamido)dispiro[cyclopropane-1,1′-cyclohexane-4′,3″- indoline]-1″- carbonyl)benzenesulfonamide], the IC50 falls from 39 nM to 7.2 nM (5.4-fold).

Going from O=C(c1cccc(S(=O)(=O)N2CCC(F)(F)CC2)c1)N1CC2(CCCC2)c2ccccc21 [Compound 3, (3-((4,4-difluoropiperidin-1-yl)sulfonyl)phenyl)(spiro[cyclopentane-1,3′-indolin]-1′-yl)methanone] to CS(=O)(=O)Nc1ccc2c(c1)C1(CCC3(CC3)CC1)CN2C(=O)c1cccc(CN2CCCO2)c1 [Compound 346, N-(1″-(3-(isoxazolidin-2-ylmethyl)benzoyl)dispiro[cyclopropane-1,1′-cyclohexane-4′,3″-indolin]-5″- yl)methanesulfonamide], the IC50 falls from 1600 nM to 310 nM (5.2-fold).
